Measurements taken from PMC3454511 (The Journal of organic chemistry, 2012).
≈ marks a conversion by molar mass, not a printed value.

Key:
Plasma stability, mouse = conditions: % parent remaining at 5 h
[1] = Hepatocyte stability, mouse; conditions: % parent remaining at 2 hour
Caco-2 monolayer = assay: Bidirectional Caco-2 permeability; type: in vitro ADME; conditions: for Caco-2 A-B: A-B direction; for Caco-2 B-A: B-A direction
[2] = Plasma protein binding by rapid-equilibrium dialysis, mouse; conditions: 37 °C for 5 h
[3] = Plasma protein binding by rapid-equilibrium dialysis, human; conditions: 37 °C for 5 h
[4] = BBB parallel artificial membrane permeability assay; type: in vitro ADME; conditions: for BBB PAMPA: Pe
[5] = Hepatocyte stability, human; conditions: % parent remaining at 2 hour
Plasma stability, human = conditions: % parent remaining at 5 h
[6] = Microsomal stability, mouse; conditions: % parent remaining at 1 hour
[7] = Microsomal stability, human; conditions: % parent remaining at 1 hour
[8] = Solubility in PBS and H2O, dry powder, 24 hour timepoint
[9] = Bidirectional Caco-2 permeability; type: in vitro ADME; conditions: human, Caco-2
physchem = conditions: thermodynamic from solid

SMILES	plasma stability mouse (Plasma stability, mouse) [% remaining]	hepatocytes mouse [1] [% remaining]	Caco-2 A-B (Caco-2 monolayer)	Caco-2 B-A (Caco-2 monolayer)	protein binding mouse [2] [% bound]	protein binding human [3] [% bound]	BBB PAMPA [4]	hepatocytes human [5] [% remaining]	plasma stability human (Plasma stability, human) [% remaining]	microsomal stability mouse [6] [% remaining]	microsomal stability human [7] [% remaining]	solubility H2O [8] [µM]	solubility PBS [8] [µM]	Papp A→B [9] [×10⁻⁶ cm/s]	Papp B→A [9] [×10⁻⁶ cm/s]	Papp ([4]; PAMPA) [×10⁻⁶ cm/s]	solubility at 24 h (physchem; PBS, aqueous buffer) [µM]	solubility at 24 h (physchem; water) [µM]
CCCN1[C@H](CO)[C@H](c2ccccc2)[C@@H]1CN [26b, ((2S,3R,4R)-4-(Aminomethyl)-3-phenyl-1-propylazetidin-2-yl)methanol]	100	103	16 10^−6 cm.s^−1	8 10^−6 cm.s^−1	19	7	83 10^−6 cm s^−1	103	92	68	73	>500	>500					
CCCN1C2CN(C(C)=O)CC1C2c1ccccc1 (stereo not shown) [27b]	94	94	54 10^−6 cm.s^−1	56 10^−6 cm.s^−1	13	23	15 10^−6 cm s^−1	104	83	93	93	483 (≈ 125 µg/mL)	476 (≈ 123 µg/mL)					
CCCN1C(CO)C2c3ccccc3N(C(C)=O)CC21 (racemic) [31b, 1-((±)-1-(Hydroxymethyl)-2-propyl-1,2a,3,8b-tetrahydroazeto[2,3-c]quinolin-4 (2H)-yl) ethanone]	98	71	48 10^−6 cm.s^−1	51 10^−6 cm.s^−1	20	18	14 10^−6 cm s^−1	32	106	64	88	496 (≈ 136 µg/mL)	489 (≈ 134 µg/mL)					
CCCN1C2CN(S(C)(=O)=O)CC1C2c1ccccc1 (stereo not shown) [27c, 3-(Methylsulfonyl)-7-phenyl-6-propyl-3,6-diazabicyclo[3.1.1]heptane]	102	67			39	31		72	113	72	86			66	54	31	470 (≈ 138 µg/mL)	490 (≈ 144 µg/mL)
